{"source": "patent US12605403B2", "about": "“Compositions and methods for treating transient biofilms” (WIAB WATER INNOVATION AB, priority 2016, dated 2026)", "key": {"[1]": {"tested_on": "Escherichia coli", "assay": "hand disinfection test, transient bacteria on hands of subjects (Handrub procedure PN-EN 1500:2013-07)", "assay_type": "in vivo", "settings": "18 subjects, E. coli on hands, hand rub", "experimental": "Tests were performed on the hands of healthy subjects to determine the transient bacteria killing effect of the disclosed compositions. The subjects washed their hands, and dipped their fingertips into Escherichia coli. The disclosed compositions were applied to the subjects' hands by rubbing the disclosed compositions into the skin to stimulate the removal of the transient bacteria on the skin. The same test was performed using prior art alcohol compositions.\nTests were performed on the hands of healthy subjects to determine the transient bacteria killing effect of the disclosed compositions.\nIn this experiment, 18 subjects washed their hands, and dipped their fingertips into a solution of Escherichia coli. Once the subjects' hands were dry, aliquots of the disclosed composition (5 mL of 160 ppm HOCl, 0.13% Hac) were applied to the subjects' dry hands and rubbed into the skin for 30 to stimulate the removal of the transient bacteria on the skin, according to Handrub procedure PN-EN 1500:2013-07."}, "[2]": {"tested_on": "natural bacteria", "assay": "hand and forearm rub test, effect on natural bacteria of the skin (Handrub procedure PN-EN 12791:2005)", "assay_type": "in vivo", "settings": "hands of 20 subjects", "experimental": "In another experiment aliquots of the disclosed composition (3 mL of 0.03% HOCl, 0.13% Hac) were applied to each of the hands of 20 subjects. […] The composition was rubbed into the hands and forearms for 5 minutes to maintain exposure to the compositions according to Handrub procedure PN-EN 12791:2005.\nBacteria kills of Escherichia coli, Pseudomonas aeruginosa, Staphylococcus areus, and Enterococcus hirae were measured immediately after the application and again 3 hours after application."}}}
{"smiles": "CC(C)O", "note": "[2-propanol 60% v/v, 2-propanol]", "values": [{"measurement": "reduction of the presence of the transient bacteria", "setting": "[1]", "value": 4, "unit": "log"}]}
{"smiles": "CCCO", "note": "[propan-1-ol, 60% v/v, propan-1-ol]", "values": [{"measurement": "reduction of the natural bacteria", "setting": "[2]; 3 hours after application", "value": 2.16, "unit": "log"}, {"measurement": "reduction of the natural bacteria", "setting": "[2]; immediately after application", "value": 2.48, "unit": "log"}]}
